According to patent US8192962B2, “Processes for detecting toxic substances” (Daikin Industries, Ltd., priority 2001, dated 2012):

System: Mitochondria-located protein genes
Test: DNA chip mRNA expression in yeast, mitochondria-located protein genes (Table 2)
Assay type: cell-based, Saccharomyces cerevisiae S288C
Conditions: cells incubated two hours with the chemical substance
How it was run: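 Expression change after 2 h toxicant exposure (growth-inhibiting, sub-lethal) of log-phase S. cerevisiae S288C at 25° C. Oligo-dT-purified mRNA was labeled with Cy3-dUTP or Cy5-dUTP and hybridized >12 h at 65° C. to a genome-wide chip; ratio of scanned fluorescence to control.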

SMILES: N#Cc1c(Cl)c(Cl)c(Cl)c(C#N)c1Cl [(9), 2,4,5,6-tetrachloro-1,3-benzenedicarbonitrile]
- The level of expressed mRNA in the presence of chemical substance/The level of expressed mRNA in the absence of chemical substance (yeast gene YJR121W): 0.8
- The level of expressed mRNA in the presence of chemical substance/The level of expressed mRNA in the absence of chemical substance (yeast gene YKL003C): 1.5
- The level of expressed mRNA in the presence of chemical substance/The level of expressed mRNA in the absence of chemical substance (yeast gene YKL016C): 1.3
- The level of expressed mRNA in the presence of chemical substance/The level of expressed mRNA in the absence of chemical substance (yeast gene YKL141W): 0.8
- The level of expressed mRNA in the presence of chemical substance/The level of expressed mRNA in the absence of chemical substance (yeast gene YKL142W): 5.8
- The level of expressed mRNA in the presence of chemical substance/The level of expressed mRNA in the absence of chemical substance (yeast gene YKL148C): 1.7
- The level of expressed mRNA in the presence of chemical substance/The level of expressed mRNA in the absence of chemical substance (yeast gene YKL170W): 0.9
- The level of expressed mRNA in the presence of chemical substance/The level of expressed mRNA in the absence of chemical substance (yeast gene YKL194C): 1.3
- The level of expressed mRNA in the presence of chemical substance/The level of expressed mRNA in the absence of chemical substance (yeast gene YKR066C): 0.7
- The level of expressed mRNA in the presence of chemical substance/The level of expressed mRNA in the absence of chemical substance (yeast gene YLL041C): 0.7
- The level of expressed mRNA in the presence of chemical substance/The level of expressed mRNA in the absence of chemical substance (yeast gene YLR038C): 0.4
- The level of expressed mRNA in the presence of chemical substance/The level of expressed mRNA in the absence of chemical substance (yeast gene YLR259C): 1.8
- The level of expressed mRNA in the presence of chemical substance/The level of expressed mRNA in the absence of chemical substance (yeast gene YLR295C): 1.4
- The level of expressed mRNA in the presence of chemical substance/The level of expressed mRNA in the absence of chemical substance (yeast gene YLR304C): 0.1
- The level of expressed mRNA in the presence of chemical substance/The level of expressed mRNA in the absence of chemical substance (yeast gene YLR348C): 2.1
- The level of expressed mRNA in the presence of chemical substance/The level of expressed mRNA in the absence of chemical substance (yeast gene YLR395C): 1.0
- The level of expressed mRNA in the presence of chemical substance/The level of expressed mRNA in the absence of chemical substance (yeast gene YML054C): 4.1
- The level of expressed mRNA in the presence of chemical substance/The level of expressed mRNA in the absence of chemical substance (yeast gene YML120C): 1.3
- The level of expressed mRNA in the presence of chemical substance/The level of expressed mRNA in the absence of chemical substance (yeast gene YML129C): 1.4
- The level of expressed mRNA in the presence of chemical substance/The level of expressed mRNA in the absence of chemical substance (yeast gene YMR023C): 1.5
- The level of expressed mRNA in the presence of chemical substance/The level of expressed mRNA in the absence of chemical substance (yeast gene YMR035W): 1.7
- The level of expressed mRNA in the presence of chemical substance/The level of expressed mRNA in the absence of chemical substance (yeast gene YMR083W): 0.4
- The level of expressed mRNA in the presence of chemical substance/The level of expressed mRNA in the absence of chemical substance (yeast gene YMR089C): 5.6
- The level of expressed mRNA in the presence of chemical substance/The level of expressed mRNA in the absence of chemical substance (yeast gene YMR152W): 2.7
- The level of expressed mRNA in the presence of chemical substance/The level of expressed mRNA in the absence of chemical substance (yeast gene YMR203W): 0.7
- The level of expressed mRNA in the presence of chemical substance/The level of expressed mRNA in the absence of chemical substance (yeast gene YMR267W): 0.4
- The level of expressed mRNA in the presence of chemical substance/The level of expressed mRNA in the absence of chemical substance (yeast gene YNL055C): 1.1
- The level of expressed mRNA in the presence of chemical substance/The level of expressed mRNA in the absence of chemical substance (yeast gene YNL071W): 1.1
- The level of expressed mRNA in the presence of chemical substance/The level of expressed mRNA in the absence of chemical substance (yeast gene YNL073W): 0.9
- The level of expressed mRNA in the presence of chemical substance/The level of expressed mRNA in the absence of chemical substance (yeast gene YNL104C): 1.1
- The level of expressed mRNA in the presence of chemical substance/The level of expressed mRNA in the absence of chemical substance (yeast gene YNL256W): 0.8
- The level of expressed mRNA in the presence of chemical substance/The level of expressed mRNA in the absence of chemical substance (yeast gene YOL096C): 1.3
- The level of expressed mRNA in the presence of chemical substance/The level of expressed mRNA in the absence of chemical substance (yeast gene YOR020C): 5.8
- The level of expressed mRNA in the presence of chemical substance/The level of expressed mRNA in the absence of chemical substance (yeast gene YOR037W): 1.3
- The level of expressed mRNA in the presence of chemical substance/The level of expressed mRNA in the absence of chemical substance (yeast gene YOR100C): 2.0
- The level of expressed mRNA in the presence of chemical substance/The level of expressed mRNA in the absence of chemical substance (yeast gene YOR130C): 2.0
- The level of expressed mRNA in the presence of chemical substance/The level of expressed mRNA in the absence of chemical substance (yeast gene YOR142W): 1.1
- The level of expressed mRNA in the presence of chemical substance/The level of expressed mRNA in the absence of chemical substance (yeast gene YOR150W): 0.8
- The level of expressed mRNA in the presence of chemical substance/The level of expressed mRNA in the absence of chemical substance (yeast gene YOR176W): 1.0
- The level of expressed mRNA in the presence of chemical substance/The level of expressed mRNA in the absence of chemical substance (yeast gene YOR187W): 0.6
- The level of expressed mRNA in the presence of chemical substance/The level of expressed mRNA in the absence of chemical substance (yeast gene YOR316C): 1.6
- The level of expressed mRNA in the presence of chemical substance/The level of expressed mRNA in the absence of chemical substance (yeast gene YPL040C): 0.2
- The level of expressed mRNA in the presence of chemical substance/The level of expressed mRNA in the absence of chemical substance (yeast gene YPL134C): 0.6
- The level of expressed mRNA in the presence of chemical substance/The level of expressed mRNA in the absence of chemical substance (yeast gene YPL135W): 0.5
- The level of expressed mRNA in the presence of chemical substance/The level of expressed mRNA in the absence of chemical substance (yeast gene YPL215W): 1.7
- The level of expressed mRNA in the presence of chemical substance/The level of expressed mRNA in the absence of chemical substance (yeast gene YPL262W): 1.4
- The level of expressed mRNA in the presence of chemical substance/The level of expressed mRNA in the absence of chemical substance (yeast gene YPR024W): 3.0
- The level of expressed mRNA in the presence of chemical substance/The level of expressed mRNA in the absence of chemical substance (yeast gene YPR037C): 1.5
- The level of expressed mRNA in the presence of chemical substance/The level of expressed mRNA in the absence of chemical substance (yeast gene YPR047W): 2.1
- The level of expressed mRNA in the presence of chemical substance/The level of expressed mRNA in the absence of chemical substance (yeast gene YPR134W): 1.8
